Reference: patent US11098342B2, “Time lapse sequencing: a convertible-nucleoside approach to enrichment-free analysis of RNA dynamics” (Yale University, priority 2017, dated 2021)

Tested on: MEF cells
Test: MEF cell viability, MTT Cell Proliferation Assay
Type: cell-based, mouse
Conditions: MEF cells treated with s^4U (0-1 mM) for 1 hour; MTT assay in triplicate
Protocol: FIG. 9A depicts exemplary MEF cell viability assays with increasing concentrations of s^4U (0, 50, 100, 500 and 1000 μM). FIG. 9B depicts exemplary MEF cell viability assays with increasing concentrations of Triton-X-100 (0, 0.5, 1, and 2%). MEF cells were plated at 10^6 cells/ml and allowed to rest overnight. An MTT assay (ATTC MTT Cell Proliferation Assay kit) was performed in triplicate after indicated treatment for 1 h. After treatment and lysis, absorbance at 570 nm was measured. FIG. 9C depicts an exemplary MA-plot of expression levels in RNA-seq in MEF cells treated with 1 mM s^4U for 1 hour, compared to cells without s^4U treatment. […] Each condition was tested with two replicates. Conditions are: ++, with s^4U treatment and chemical treatment; +−, with s^4U treatment but no chemical treatment; −+, no s^4U treatment but with chemical treatment; −−, neither s^4U treatment nor chemical treatment.
MEF cells were grown at 37° C. in DMEM containing 10% FBS and 1% P/S. Cells were plated at 10^6 cells/mL in a 96-well microtiter plate and allowed to recover overnight. Cells were then treated in triplicate with increasing concentrations of s^4U (0-1 mM) for 1 hour, and the ATCC MTT Cell Proliferation Assay kit was used according to manufacturer's instructions to assess cell viability.

Q: How did the “s^4U toxicity (cell viability, absorbance at 570 nm)” value turn out when `O=c1[nH]c(=S)ccn1[C@@H]1O[C@H](CO)[C@@H](O)[C@H]1O` [s^4U, 4-thiouridine] was run?
A: no s^4U toxicity was observed
